# From patent publication US20200222474A1, “COMPOSITIONS AND METHODS FOR INCREASING PHYTOCHEMICAL BIOAVAILABLITY AND BIOACTIVITY” (North Carolina State University, priority 2017, published 2020)
# Test system: L. acidophilus NCFM
# Experiment: RNA-seq transcriptional analysis of L. acidophilus NCFM growing on plant glycosides
# Type: cell-based, Lactobacillus acidophilus
# [1] = gene LBA0282 (Hypothetical protein)
# [2] = gene LBA0327 (Replication protein)
# [3] = gene LBA0328 (Hypothetical protein)
# [4] = gene LBA0330 (Hypothetical protein)
# [5] = gene LBA0457 (Hypothetical protein)
# [6] = gene LBA0485 (Hypothetical protein)
# [7] = gene LBA0486 (Hypothetical protein)
# [8] = gene LBA0487 (Hypothetical protein.)
# [9] = gene LBA0492 (Hypothetical protein)
# [10] = gene LBA0541 (Cadmium-transporting ATPase)
# [11] = gene LBA0542 (Putative heavy-metal-transporting alpase)
# [12] = gene LBA0543 (Hypothetical protein)
# [13] = gene LBA0544 (Transcriptional regulator)
# [14] = gene LBA0555 (Myosin-crossreactive antigen)
# [15] = gene LBA0564 (HAD family hydrolase)
# [16] = gene LBA0574 (ABC multi drug exporter)
# [17] = gene LBA0575 (ABC multi drug exporter)
# [18] = gene LBA0604 (Immunity protein)
# [19] = gene LBA0605 (Putative hydrolase)
# [20] = gene LBA0608 (Hypothetical protein)
# [21] = gene LBA0631 (Hypothetical protein)
# [22] = gene LBA0649 (Myosin-crossreactive antigen)
# [23] = gene LBA0728 (Hypothetical protein LBA0728)
# [24] = gene LBA1025 (Aldo/keto reductase family oxidoreductase)
# [25] = gene LBA1026 (Aldo/keto reduetase family oxidoreductase)
smiles,measurement,setting,value
N#C[C@H](O[C@@H]1O[C@H](CO[C@@H]2O[C@H](CO)[C@@H](O)[C@H](O)[C@H]2O)[C@@H](O)[C@H](O)[C@H]1O)c1ccccc1 [Amygdalin],Log2 differential normalized TPM ratio compared to glucose,[1],0.2
same,Log2 differential normalized TPM ratio compared to lactose,[1],−0.4
same,Transcripts per million (rpm),[1],20 rpm
same,Log2 differential normalized TPM ratio compared to glucose,[2],−0.9
same,Log2 differential normalized TPM ratio compared to lactose,[2],−1.1
same,Transcripts per million (rpm),[2],3.5 rpm
same,Log2 differential normalized TPM ratio compared to glucose,[3],−0.3
same,Log2 differential normalized TPM ratio compared to lactose,[3],−0.3
same,Transcripts per million (rpm),[3],9 rpm
same,Log2 differential normalized TPM ratio compared to glucose,[4],0.1
same,Log2 differential normalized TPM ratio compared to lactose,[4],−0.2
same,Transcripts per million (rpm),[4],18.2 rpm
same,Log2 differential normalized TPM ratio compared to glucose,[5],1.6
same,Log2 differential normalized TPM ratio compared to lactose,[5],0.6
same,Transcripts per million (rpm),[5],1217.8 rpm
same,Log2 differential normalized TPM ratio compared to glucose,[6],3.3
same,Log2 differential normalized TPM ratio compared to lactose,[6],0.9
same,Transcripts per million (rpm),[6],1655 rpm
same,Log2 differential normalized TPM ratio compared to glucose,[7],3.7
same,Log2 differential normalized TPM ratio compared to lactose,[7],0.9
same,Transcripts per million (rpm),[7],2443 rpm
same,Log2 differential normalized TPM ratio compared to glucose,[8],2.3
same,Log2 differential normalized TPM ratio compared to lactose,[8],1
same,Transcripts per million (rpm),[8],132.1 rpm
same,Log2 differential normalized TPM ratio compared to glucose,[9],5
same,Log2 differential normalized TPM ratio compared to lactose,[9],2.6
same,Transcripts per million (rpm),[9],213.1 rpm
same,Log2 differential normalized TPM ratio compared to glucose,[10],2
same,Log2 differential normalized TPM ratio compared to lactose,[10],−0.2
same,Transcripts per million (rpm),[10],119.7 rpm
same,Log2 differential normalized TPM ratio compared to glucose,[11],2.2
same,Log2 differential normalized TPM ratio compared to lactose,[11],0
same,Transcripts per million (rpm),[11],320.9 rpm
same,Log2 differential normalized TPM ratio compared to glucose,[12],2.4
same,Log2 differential normalized TPM ratio compared to lactose,[12],0
same,Transcripts per million (rpm),[12],283.1 rpm
same,Log2 differential normalized TPM ratio compared to glucose,[13],1.9
same,Log2 differential normalized TPM ratio compared to lactose,[13],−0.1
same,Transcripts per million (rpm),[13],321.3 rpm
same,Log2 differential normalized TPM ratio compared to glucose,[14],6
same,Log2 differential normalized TPM ratio compared to lactose,[14],4.1
same,Transcripts per million (rpm),[14],2251.5 rpm
same,Log2 differential normalized TPM ratio compared to glucose,[15],2.3
same,Log2 differential normalized TPM ratio compared to lactose,[15],1.8
same,Transcripts per million (rpm),[15],4.1 rpm
same,Log2 differential normalized TPM ratio compared to glucose,[16],−1.2
same,Log2 differential normalized TPM ratio compared to lactose,[16],−1.5
same,Transcripts per million (rpm),[16],31.9 rpm
same,Log2 differential normalized TPM ratio compared to glucose,[17],−1
same,Log2 differential normalized TPM ratio compared to lactose,[17],−1.2
same,Transcripts per million (rpm),[17],32.6 rpm
same,Log2 differential normalized TPM ratio compared to glucose,[18],2
same,Log2 differential normalized TPM ratio compared to lactose,[18],1.6
same,Transcripts per million (rpm),[18],49.6 rpm
same,Log2 differential normalized TPM ratio compared to glucose,[19],3.6
same,Log2 differential normalized TPM ratio compared to lactose,[19],2.6
same,Transcripts per million (rpm),[19],26.3 rpm
same,Log2 differential normalized TPM ratio compared to glucose,[20],3.1
same,Log2 differential normalized TPM ratio compared to lactose,[20],2
same,Transcripts per million (rpm),[20],239.3 rpm
same,Log2 differential normalized TPM ratio compared to glucose,[21],7.2
same,Log2 differential normalized TPM ratio compared to lactose,[21],4
same,Transcripts per million (rpm),[21],141786.9 rpm
same,Log2 differential normalized TPM ratio compared to glucose,[22],2.9
same,Log2 differential normalized TPM ratio compared to lactose,[22],2.1
same,Transcripts per million (rpm),[22],228.6 rpm
same,Log2 differential normalized TPM ratio compared to glucose,[23],6
same,Log2 differential normalized TPM ratio compared to lactose,[23],4.2
same,Transcripts per million (rpm),[23],129.5 rpm
same,Log2 differential normalized TPM ratio compared to glucose,gene LBA0861 (Polyferredoxin),0
same,Log2 differential normalized TPM ratio compared to lactose,gene LBA0861 (Polyferredoxin),−0.5
same,Transcripts per million (rpm),gene LBA0861 (Polyferredoxin),153 rpm
same,Log2 differential normalized TPM ratio compared to glucose,gene LBA1023 (Oxidoreductase),−1.5
same,Log2 differential normalized TPM ratio compared to lactose,gene LBA1023 (Oxidoreductase),−1.8
same,Transcripts per million (rpm),gene LBA1023 (Oxidoreductase),18.8 rpm
same,Log2 differential normalized TPM ratio compared to glucose,[24],−1.8
same,Log2 differential normalized TPM ratio compared to lactose,[24],−1.8
same,Transcripts per million (rpm),[24],7.2 rpm
same,Log2 differential normalized TPM ratio compared to glucose,[25],−1.7
same,Log2 differential normalized TPM ratio compared to lactose,[25],−2.1
same,Transcripts per million (rpm),[25],8.1 rpm
same,Log2 differential normalized TPM ratio compared to glucose,gene LBA1027 (Oxidoreductase),2.9
same,Log2 differential normalized TPM ratio compared to lactose,gene LBA1027 (Oxidoreductase),1.4
